Data on 13 compounds can be found in patent publication US11344546B2, “Benzamide compounds” (Recurium IP Holdings, LLC, priority 2018, dated 2022).

For this assay, the system named is RS4;11 cells. Description: RS4;11 cell proliferation assay (CellTiter-Glo). To be noted: Homo sapiens, 48 h compound treatment, read-out: RS4;11 (nM) CTG IC50. The assay is classed as cell-based. The method, then: Cell proliferation was measured using the CellTiter-Glo@ Luminescent Cell Viability Assay. The assay involved the addition of a single reagent (CellTiter-Glo® Reagent) directly to cells cultured in serum-supplemented medium. RS4;11 (ATC, CRL-1873) cells were cultured according to ATCC recommendations and were seeded at 50,000 cells per well. NCI-H1963 cells (ATCC CRL-5982) were cultured according to ATCC recommendations and seeded at 12,000 cells per well.
Each compound evaluated was prepared as a DMSO stock solution (10 mM). Compounds were tested in duplicate on each plate, with a 10-point serial dilution curve (1:3 dilution). Compound treatment (1.0 μL) was added from the compound dilution plate to the cell plate. The highest compound concentration was 10 μM (final), with a 0.1% final DMSO concentration. Plates were then incubated at 37° C., 5% CO2. After 48 h of compound treatment for RS4;11 or 72 h for NCI-H1963, cell plates were equilibrated at rt for approximately 30 mins. An equi-volume amount of CellTiter-Glo@ Reagent (40 μL) was added to each well. Plates were mixed for 2 mins on an orbital shaker to induce cell lysis and then incubated at RT for 10 mins to stabilize the luminescent signal. Luminescence was recorded using a Envision plate reader according to CellTiter-Glo protocol. IC50 of each compound was calculated using GraphPad Prism by nonlinear regression analysis.
On the technique in general: Cellular ATP, detected with luciferase, serves as a proxy for viable cell number.
For the compound `CC1(C)CCC(CN2CCN(c3ccc(C(=O)NS(=O)(=O)c4ccc(NCC5CC6(COC6)C5)c([N+](=O)[O-])c4)c(Oc4cnc5[nH]ccc5c4)c3)CC2)=C(C23CC(Cl)(C2)C3)C1` [Example 2, 2-(1H-pyrrolo[2,3-b]pyridin-5-yl-oxy)-N-(4-(2-oxaspiro[3.3]heptan-6-yl-methylamino)-3-nitrophenylsulfonyl)-4-(4-((2-(3-chlorobicyclo[1.1.1]pentan-1-yl)-4,4-dimethylcyclohex-1en-yl)methyl)piperazin-1-yl)benzamide], the IC50 is less than 100 nM. The same measure for `CC1(C)CCC(CN2CCN(c3ccc(C(=O)NS(=O)(=O)c4ccc(NCCN5CCC6(CCOC6)CC5)c([N+](=O)[O-])c4)c(Oc4cnc5[nH]ccc5c4)c3)CC2)=C(C23CC(Cl)(C2)C3)C1` [Example 3, 2-((1H-pyrrolo[2,3-b]pyridin-5-yl)oxy)-N-((4-((2-(2-oxa-8-azaspiro[4.5]decan-8-yl)ethyl)amino)-3-nitrophenyl)sulfonyl)-4-(4-((2-(3-chlorobicyclo[1.1.1]pentan-1-yl)-4,4-dimethylcyclohex-1-en-1-yl)methyl)piperazin-1-yl)benzamide]: 100 to 1000 nM; for `CC1(C)CCC(CN2CCN(c3ccc(C(=O)NS(=O)(=O)c4ccc(NCCN5CC6(CCOCC6)C5)c([N+](=O)[O-])c4)c(Oc4cnc5[nH]ccc5c4)c3)CC2)=C(C23CC(Cl)(C2)C3)C1` [Example 4, 2-(1H-pyrrolo[2,3-b]pyridin-5-yloxy)-N-(4-(2-(7-oxa-2-azaspiro[3.5]nonan-2-yl)ethylamino)-3-nitrophenylsulfonyl)-4-(4-((2-(3-chlorobicyclo[1.1.1]pentan-1-yl)-4,4-dimethylcyclohex-1-enyl)methyl)piperazin-1-yl)benzamide]: 100 to 1000 nM.

`CC1(C)CCC(CN2CCN(c3ccc(C(=O)NS(=O)(=O)c4ccc(NCC5CC6(CCOCC6)C5)c([N+](=O)[O-])c4)c(Oc4cnc5[nH]ccc5c4)c3)CC2)=C(C23CC(Cl)(C2)C3)C1` [Example 5, 2-((1H-pyrrolo[2,3-b]pyridin-5-yl)oxy)-N-((4-(((7-oxaspiro[3.5]nonan-2-yl)methyl)amino)-3-nitrophenyl)sulfonyl)-4-(4-((2-(3-chlorobicyclo[1.1.1]pentan-1-yl)-4,4-dimethylcyclohex-1-en-1-yl)methyl)piperazin-1-yl)benzamide]: the IC50 was in the range of 100 to 1000 nM. On to `CC1(C)CCC(CN2CCN(c3ccc(C(=O)NS(=O)(=O)c4ccc(OC5COC6(CC6)C5)c([N+](=O)[O-])c4)c(Oc4cnc5[nH]ccc5c4)c3)CC2)=C(C23CC(Cl)(C2)C3)C1` (stereo not shown) [Example 6, 2-((1H-pyrrolo[2,3-b]pyridin-5-yl)oxy)-N-((4-((4-oxaspiro[2.4]heptan-6-yl)oxy)-3-nitrophenyl)sulfonyl)-4-(4-((2-(3-chlorobicyclo[1.1.1]pentan-1-yl)-4,4-dimethylcyclohex-1-en-1-yl)methyl)piperazin-1-yl)benzamide], for which the IC50 was greater than 1000 nM. For the compound `CC1(C)CCC(CN2CCN(c3ccc(C(=O)NS(=O)(=O)c4ccc(OCCN5CC6(COC6)C5)c([N+](=O)[O-])c4)c(Oc4cnc5[nH]ccc5c4)c3)CC2)=C(C23CC(Cl)(C2)C3)C1` [Example 7, 2-(1H-pyrrolo[2,3-b]pyridin-5-yloxy)-N-(4-(2-(2-oxa-6-azaspiro[3.3]heptan-6-yl)ethoxy)-3-nitrophenylsulfonyl)-4-(4-((2-(3-chlorobicyclo[0.1.1]pentan-1-yl)-4,4-dimethylcyclohex-1-enyl)methyl)piperazin-1-yl)benzamide], the IC50 is greater than 1000 nM. Regarding `CC1(C)CCC(CN2CCN(c3ccc(C(=O)NS(=O)(=O)c4ccc(OCC5CC6(COC6)C5)c([N+](=O)[O-])c4)c(Oc4cnc5[nH]ccc5c4)c3)CC2)=C(C23CC(Cl)(C2)C3)C1` [Example 8, 2-(1H-pyrrolo[2,3-b]pyridin-5-yloxy)-N-(4-(2-oxaspiro[3.3]heptan-6-ylmethoxy)-3-nitrophenylsulfonyl)-4-(4-((2-(3-chlorobicyclo[1.1.1]pentan-1-yl)-4,4-dimethylcyclohex-1-enyl)methyl)piperazin-1-yl)benzamide], the IC50 lay in the range of 100 to 1000 nM. The same measure for `CN1CCC(CNc2ccc(S(=O)(=O)NC(=O)c3ccc(N4CCN(CC5=C(C67CC(C)(C6)C7)CC(C)(C)CC5)CC4)cc3Oc3cnc4[nH]ccc4c3)cc2[N+](=O)[O-])CC1` [Example 12, 2-((1H-pyrrolo[2,3-b]pyridin-5-yl)oxy)-4-(4-((4,4-dimethyl-2-(3-methylbicyclo[1.1.1]pentan-1-yl)cyclohex-1-en-1-yl)methyl)piperazin-1-yl)-N-((4-(((1-methylpiperidin-4-yl)methyl)amino)-3-nitrophenyl)sulfonyl)benzamide]: less than 100 nM. `CN(C)[C@H]1CC[C@H](Nc2ccc(S(=O)(=O)NC(=O)c3ccc(N4CCN(CC5=C(C67CC(C)(C6)C7)CC(C)(C)CC5)CC4)cc3Oc3cnc4[nH]ccc4c3)cc2[N+](=O)[O-])CC1` [Example 14, 2-((1H-pyrrolo[2,3-b]pyridin-5-yl)oxy)-4-(4-((4,4-dimethyl-2-(3-methylbicyclo[1.1.1]pentan-1-yl)cyclohex-1-en-1-yl)methyl)piperazin-1-yl)-N-((4-(((1r,4r)-4-(dimethylamino)cyclohexyl)amino)-3-nitrophenyl)sulfonyl)benzamide]: the IC50 is less than 100 nM. With `CC1(C)CCC(CN2CCN(c3ccc(C(=O)NS(=O)(=O)c4ccc(NCCN5CCOCC5)c([N+](=O)[O-])c4)c(Oc4cnc5[nH]ccc5c4)c3)CC2)=C(C23CC(C)(C2)C3)C1` [Example 21, 2-(1H-pyrrolo[2,3-b]pyridin-5-yloxy)-4-(4-((4,4-dimethyl-2-(3-methylbicyclo[1.1.1]pentan-1-yl)cyclohex-1-enyl)methyl)piperazin-1-yl)-N-(4-(2-morpholinoethylamino)-3-nitrophenylsulfonyl)benzamide], the IC50 lay in the range of 100 to 1000 nM.

With `CC1(C)CCC(CN2CCN(c3ccc(C(=O)NS(=O)(=O)c4ccc(OCC5CCOCC5)c([N+](=O)[O-])c4)c(Oc4cnc5[nH]ccc5c4)c3)CC2)=C(C23CC(C)(C2)C3)C1` [Example 22, 2-(1H-pyrrolo[2,3-b]pyridin-5-yloxy)-4-(4-((4,4-dimethyl-2-(3-methylbicyclo[1.1.1]pentan-1-yl)cyclohex-1-enyl)methyl)piperazin-1-yl)-N-(3-nitro-4-((tetrahydro-2H-pyran-4-yl)methoxy)phenylsulfonyl)benzamide], the IC50 is less than 100 nM. In the case of `CCC12CC(C3=C(CN4CCN(c5ccc(C(=O)NS(=O)(=O)c6ccc(NCC7(F)CCN(C)CC7)c([N+](=O)[O-])c6)c(Oc6cnc7[nH]ccc7c6)c5)CC4)CCC(C)(C)C3)(C1)C2` [Example 24, 2-(1H-pyrrolo[2,3-b]pyridin-5-yloxy)-4-(4-((2-(3-ethylbicyclo[1.1.1]pentan-1l-yl)-4,4-dimethylcyclohex-1l-enyl)methyl)piperazin-1-yl)-N-(4-((4-fluoro-1l-methylpiperidin-4-yl)methylamino)-3-nitrophenylsulfonyl)benzamide], the IC50 is less than 100 nM. `CN1CCC(F)(CNc2ccc(S(=O)(=O)NC(=O)c3ccc(N4CCN(CC5=C(C67CC(C(F)(F)F)(C6)C7)CC(C)(C)CC5)CC4)cc3Oc3cnc4[nH]ccc4c3)cc2[N+](=O)[O-])CC1` [Example 29, 2-((1H-pyrrolo[2,3-b]pyridin-5-yl)oxy)-4-(4-((4,4-dimethyl-2-(3-(trifluoromethyl)bicyclo[1.1.1]pentan-1-yl)cyclohex-1-en-1-yl)methyl)piperazin-1-yl)-N-((4-(((4-fluoro-1-methylpiperidin-4-yl)methyl)amino)-3-nitrophenyl)sulfonyl)benzamide]: the IC50 is less than 100 nM.
